In ChEMBL document CHEMBL1201862, “PubChem BioAssay data set” (2004):
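Cells were grown in 96-well plates and exposed to each compound for 48 hours at five concentrations; endpoints were interpolated linearly between bracketing concentrations, or set to the highest concentration if not reached. At the GI50, growth is halved.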 Active and inactive are the calls of the source. Rule as the data show it: active = GI50 up to about 1.1 µM and inactive = higher.

Columns and labels:
Assay in all cases: NCI tumour cell line growth inhibition, 48 h
[1] = test system: UACC-257
[2] = test system: NCI-H522
[3] = test system: UACC-62
[4] = test system: NCI/ADR-RES
[5] = test system: HCC 2998
[6] = test system: M14
[7] = test system: MCF7
[8] = test system: HCT-116
[9] = test system: SF-295
[10] = test system: SN12C
[11] = test system: HOP-92
[12] = test system: EKVX
[13] = test system: HOP-62
[14] = test system: MOLT-4
[15] = test system: SK-MEL-2
[16] = test system: KM12
[17] = test system: NCI-H23
[18] = test system: DU-145
[19] = test system: SNB-19
[20] = test system: 786-0

SMILES	GI50 [1]	GI50 [2]	GI50 [3]	GI50 [4]	GI50 [5]	GI50 [6]	GI50 [7]	GI50 [8]	GI50 [9]	GI50 [10]	GI50 [11]	GI50 [12]	GI50 [13]	GI50 [14]	GI50 [15]	GI50 [16]	GI50 [17]	GI50 [18]	GI50 [19]	GI50 [20]
Cc1ccc(S(=O)(=O)N/N=C2\CC3C4C=CC3C2C4)cc1 (stereo not given)	> 100 µM (inactive)	> 100 µM (inactive)	> 100 µM (inactive)	> 100 µM (inactive)	> 100 µM (inactive)	> 100 µM (inactive)	> 100 µM (inactive)	> 100 µM (inactive)	> 100 µM (inactive)	> 100 µM (inactive)	> 100 µM (inactive)	> 100 µM (inactive)	> 100 µM (inactive)	> 100 µM (inactive)	> 100 µM (inactive)	> 100 µM (inactive)	> 100 µM (inactive)	> 100 µM (inactive)	> 100 µM (inactive)	> 100 µM (inactive)
CC[C@H](C)[C@H]1NC(=O)[C@@H](NC(=O)[C@@H](CC(C)C)N(C)CC2CCCN2C(=O)C(C)=O)[C@@H](C)OC(=O)[C@H](Cc2ccc(OC)cc2)N(C)C(=O)C2CCCN2C(=O)[C@H](CC(C)C)NC(=O)[C@@H](C)C(=O)[C@H](C(C)C)OC(=O)C[C@@H]1O (stereo not given in full)	0.00443 µM (active)	0.00564 µM (active)	0.00294 µM (active)	0.0179 µM (active)	0.00448 µM (active)	0.00374 µM (active)	< 0.0025 µM (active)	0.00308 µM (active)	0.00371 µM (active)	0.00545 µM (active)	0.00403 µM (active)	0.00379 µM (active)	0.00361 µM (active)	< 0.0025 µM (active)	0.00351 µM (active)	0.00302 µM (active)	0.00719 µM (active)	< 0.0025 µM (active)	0.00356 µM (active)	0.00494 µM (active)
NC(CSCc1ccc(I)cc1)C(=O)O (stereo not given)	> 100 µM (inactive)	> 100 µM (inactive)	> 100 µM (inactive)	> 100 µM (inactive)	> 100 µM (inactive)	> 100 µM (inactive)	> 100 µM (inactive)	> 100 µM (inactive)	> 100 µM (inactive)	> 100 µM (inactive)	> 100 µM (inactive)	> 100 µM (inactive)	> 100 µM (inactive)	> 100 µM (inactive)	> 100 µM (inactive)	> 100 µM (inactive)	> 100 µM (inactive)	> 100 µM (inactive)	> 100 µM (inactive)	> 100 µM (inactive)
Cc1c(/N=C\c2ccc(N(CCC#N)CCC#N)cc2)c(=O)n(-c2ccccc2)n1C	> 100 µM (inactive)	> 100 µM (inactive)	> 100 µM (inactive)	> 100 µM (inactive)	> 100 µM (inactive)	92.7 µM (inactive)	> 63.7 µM (inactive)	> 100 µM (inactive)	25.7 µM (inactive)	> 93.5 µM (inactive)	45.7 µM (inactive)	> 93.5 µM (inactive)	31.5 µM (inactive)	> 100 µM (inactive)	> 96.6 µM (inactive)	> 100 µM (inactive)	> 100 µM (inactive)	> 100 µM (inactive)	41.8 µM (inactive)	24.4 µM (inactive)
CCCCCCCC(=O)OC[n+]1ccc(-c2c(COC(=O)NC(C)C)c(COC(=O)NC(C)C)c3n2CCC3)cc1	70.6 µM (inactive)	26.4 µM (inactive)	13.8 µM (inactive)	53.8 µM (inactive)	> 100 µM (inactive)	49.8 µM (inactive)	30.2 µM (inactive)	25.5 µM (inactive)	53.5 µM (inactive)	33.4 µM (inactive)	26.4 µM (inactive)	> 79.6 µM (inactive)	56.6 µM (inactive)	13.3 µM (inactive)	22.1 µM (inactive)	> 100 µM (inactive)	35.2 µM (inactive)	23.4 µM (inactive)	88.9 µM (inactive)	27 µM (inactive)
COc1ccc(NC(=O)CC(=O)N2N=C(N3CCCCC3)CC2c2ccccc2)cc1 (stereo not given)	> 100 µM (inactive)	> 100 µM (inactive)	> 100 µM (inactive)	> 100 µM (inactive)	> 100 µM (inactive)	> 100 µM (inactive)	> 100 µM (inactive)	> 100 µM (inactive)	> 100 µM (inactive)	> 100 µM (inactive)	99.5 µM (inactive)	> 100 µM (inactive)	> 100 µM (inactive)	> 100 µM (inactive)	> 100 µM (inactive)	> 100 µM (inactive)	> 100 µM (inactive)	> 100 µM (inactive)	> 100 µM (inactive)	> 100 µM (inactive)
O=C(/C=C1\C[C@H]2C=Nc3ccccc3C(=O)N2C1)NCCCNC(=O)/C=C1\C[C@H]2C=Nc3ccccc3C(=O)N2C1	16.5 µM (inactive)	1.96 µM (inactive)	15.7 µM (inactive)	23.3 µM (inactive)	20.2 µM (inactive)	14.4 µM (inactive)	16.7 µM (inactive)	16 µM (inactive)	19 µM (inactive)	18 µM (inactive)	20 µM (inactive)	19.8 µM (inactive)	16.6 µM (inactive)	2.62 µM (inactive)	19.3 µM (inactive)	16 µM (inactive)	15.5 µM (inactive)	18.5 µM (inactive)	16.4 µM (inactive)	3.03 µM (inactive)
